Experimental data taken from patent publication US9855283B2, “Composition comprising GPCR19 agonist as an active ingredient for preventing or treating allergic dermatitis” (SHAPERON Inc., priority 2013, dated 2018).

How the values were obtained:
[1] = test system: atopic dermatitis lesions on shaved-back of Balb/C mice; assay: Clinical score of DNCB-induced atopic dermatitis lesions (five items, worst score 15); type: in vivo; conditions: day 15
Description: (§1) In order to test efficacy of the sodium taurodeoxycholate (HY2191) composition on atopic dermatitis, dermatitis lesion was induced at the shaved-back of 6 weeks old male Balb/C mice. DNCB (2,4-dinitro-1-chlorobenzene, Sigma) was used as a hapten.
Five mice for each group were tested. The amount of IgE in blood of mice was measured to evaluate an inhibitory effect of a medication on IgE production. To make skin lesion of atopic dermatitis, 100 μL of a DNCB solution (2.5% in acetone) was applied on the shaved-back of the mouse at day 1. One hundred μL of DNCB (1% in acetone) was applied at day 4 and 100 μL of 0.2% DNCB in acetone at day 10. […]
In order to evaluate the efficacy of sodium taurodeoxycholate on atopic dermatitis, atopic dermatitis was induced on shaved-back of Balb/C mice with DNCB according to experimental example 1 and clinical scores of atopic dermatitis lesions incurred on the back of animal model was evaluated on day 15. To evaluate clinical scores at day 15, (1) the frequency of scratching for 2 minutes, (2) the severity of erythema/hemorrhage, (3) edema, (4) excoriation/erosion, and (5) scaling/dryness were graded and were scored from 0 (none) to 3 (severe), making the worst score 15 for the most severe subject. The every subject in every group was evaluated by three people in a double-blind method. The mean clinical score of individual mouse was calculated.

mast cells = assay: Mast cells infiltrated into the dermis (toluidine blue); type: in vivo, Balb/C mice; conditions: compared with vehicle-treated group (p<0.05)
Description: as §1
(§2) Five mice for each group were tested. The amount of IgE in blood of mice was measured to evaluate an inhibitory effect of a medication on IgE production. To make skin lesion of atopic dermatitis, 100 μL of a DNCB solution (2.5% in acetone) was applied on the shaved-back of the mouse at day 1. One hundred μL of DNCB (1% in acetone) was applied at day 4 and 100 μL of 0.2% DNCB in acetone at day 10.
(§3) From the day 7 to the day 14, 100 μL of the composition of 2.5% or 5% sodium taurodeoxycholate (HY2191) of example 1 was applied on the back of mice twice a day. Maxidex ointment (Dexamethasone, Alcon Korea) and Protopic ointment (Tacrolimus, Astellas Pharma Korea) were used for positive control groups and only a vehicle was used for a negative control group.
(§4) The number of mast cells, eosinophils, and neutrophils infiltrated into the dermis were counted after staining skins with toluidine blue, congo red, or specific esterase (Naphthol AS-D chloroacetate), respectively. […] On the other hand, the number of neutrophils critical for acute inflammation was increased in the group of atopic mice treated with Protopic.

IFN-γ = assay: Serum TH1 cytokine IFN-γ by ELISA in DNCB-induced atopic dermatitis mice; type: in vivo, Balb/C mice; conditions: 5% composition; far better than mice treated with Protopic or Maxidex (p<0.05)
serum IgE = assay: Serum IgE level by ELISA in DNCB-induced atopic dermatitis mice; type: in vivo, Balb/C mice; conditions: FIG. 3
Description: as §1, §2, §3
After the clinical evaluation described at Experimental Example 2, a mixture containing 0.4% of Zoletil (Virbac, Milano Italy) and 0.04% of Rompun (Bayer Korea) in normal saline was injected i.p. to anesthetize each mouse. Blood samples were collected from the heart of the mice. The serum was prepared to measure the concentration of IgE using enzyme immunoassay (Mouse IgE ELISA, BD). […]

[2] = test system: dorsal skin of atopic mice; assay: Histopathology (H&E) of dorsal skin: thickness of epidermis and dermis; type: in vivo, Balb/C mice; conditions: for thickness of the epidermis: DNCB only 320.2±21.6 μm, sham 26.1±1.0 μm; for thickness of dermis: DNCB only 930.2±34.2 μm, sham 384.7±11.4 μm
Description: In order to test efficacy of the sodium taurodeoxycholate (HY2191) composition on atopic dermatitis, dermatitis lesion was induced at the shaved-back of 6 weeks old male Balb/C mice. DNCB (2,4-dinitro-1-chlorobenzene, Sigma) was used as a hapten. Five mice for each group were tested. The amount of IgE in blood of mice was measured to evaluate an inhibitory effect of a medication on IgE production. To make skin lesion of atopic dermatitis, 100 μL of a DNCB solution (2.5% in acetone) was applied on the shaved-back of the mouse at day 1. One hundred μL of DNCB (1% in acetone) was applied at day 4 and 100 μL of 0.2% DNCB in acetone at day 10. From the day 7 to the day 14, 100 μL of the composition of 2.5% or 5% sodium taurodeoxycholate (HY2191) of example 1 was applied on the back of mice twice a day. Maxidex ointment (Dexamethasone, Alcon Korea) and Protopic ointment (Tacrolimus, Astellas Pharma Korea) were used for positive control groups and only a vehicle was used for a negative control group. The dorsal skin flaps of the mice were fixed in a 10% formalin solution for 24 hours and then washed with distilled water. The paraffin blocks of the fixed skins were prepared and sectioned (thickness of 7 μm). They were stained with hematoxylin and eosin (H&E) (FIG. 5A). The thickness of epidermis and the dermis of mice treated with DNCB only were 320.2±21.6 μm and 930.2±34.2 μm, respectively. […] The thickness of dermis from the group of atopic mice treated with 2.5% sodium taurodeoxycholate (HY2191), 5% sodium taurodeoxycholate (HY2191), or Protopic were 616.0±21.1 μm, 521.7±18.3 μm, and 572.6±20.2 μm, respectively.

neutrophils = assay: Neutrophils infiltrated into the dermis (specific esterase, Naphthol AS-D chloroacetate); type: in vivo, Balb/C mice; conditions: compared with vehicle-treated group
Description: as §1, §2, §3, §4

eosinophils = assay: Eosinophils infiltrated into the dermis (congo red); type: in vivo, Balb/C mice; conditions: compared with vehicle-treated group (p<0.05)
Description: as §1, §2, §3, §4

IL-4 = assay: Serum TH2 cytokine IL-4 by ELISA in DNCB-induced atopic dermatitis mice; type: in vivo, Balb/C mice; conditions: 5% composition; better than mice treated with Protopic or Maxidex (p<0.05)
IL-2 = assay: Serum TH1 cytokine IL-2 by ELISA in DNCB-induced atopic dermatitis mice; type: in vivo, Balb/C mice; conditions: 5% composition; far better than mice treated with Protopic or Maxidex (p<0.05)

With `C[C@H](CCC(=O)NCCS(=O)(=O)O)[C@H]1CC[C@H]2[C@@H]3CC[C@@H]4C[C@H](O)CC[C@]4(C)[C@H]3C[C@H](O)[C@]12C` [sodium taurodeoxycholate (HY2191), sodium taurodeoxycholate] the clinical scores ([1]; 5% composition, compared to positive control group that received Maxidex ointment or Protopic ointment) was “better clinical scores”, the clinical score ([1]; compared to negative control group treated with vehicle only, topical twice a day, day 7 to 14) was “better clinical score” and the “number of mast cells in the skin of atopic mice” value (mast cells) was “significantly decreased”. The “level of IFN-γ (TH1 cytokine) in serum” value (IFN-γ) was “increased significantly”, the “inhibiting serum IgE production” value (serum IgE; 2.5% or 5% composition) was “effective in inhibiting serum IgE production” and the “serum IgE levels” value (serum IgE; compared with positive control groups (Maxidex ointment or Protopic ointment)) was “significantly lower”. For the same compound, the “thickness of the epidermis” value ([2]; 2.5% composition) was 105.3±7.0 μm, the thickness of dermis ([2]; 2.5% composition) was 616.0±21.1 μm and the “thickness of the epidermis” value ([2]; 5% composition) was 75.0±8.4 μm. The thickness of dermis ([2]; 5% composition) was 521.7±18.3 μm, the “number of neutrophils in the skin of atopic mice” value (neutrophils) was “significantly decreased” and the “number of eosinophils in the skin of atopic mice” value (eosinophils) was “significantly decreased”. The “level of IL-4 (TH2 cytokine) in serum” value (IL-4) was “decreased significantly” and the “level of IL-2 (TH1 cytokine) in serum” value (IL-2) was “increased significantly”.
